This passage reports Stability results from ChEMBL document CHEMBL1154299, “Human liver microsomal metabolism of (+)-discodermolide” (J Nat Prod, 2009).

What all share (assay type): ADME
The subject of data set [1] is Liver microsomes. Put plainly: Metabolic stability in human liver microsome at 10 uM in the presence of NADPH assessed as level of metabolites after 5 mins by LC-MS analysis. Background: Liver microsomes are vesicles of endoplasmic reticulum, rich in cytochrome P450 enzymes.
Data set [2] deals with Liver microsomes. Put plainly: Metabolic stability in heat inactivated human liver microsome at 10 uM after 15 mins in the presence of NADPH by LC-MS analysis. To be noted: 0.25 h.
The test system of data set [3] is Liver microsomes. Put plainly: Metabolic stability in human liver microsome at 10 uM after 15 mins in the absence of NADPH by LC-MS analysis. To be noted: 0.25 h.
Data set [4] has as its system Liver microsomes. Briefly: Metabolic stability in human liver microsome at 10 uM in the presence of NADPH assessed as level of metabolites after 1 mins by LC-MS analysis.

For `C=C/C=C\[C@H](C)[C@H](OC(N)=O)[C@@H](C)[C@H](O)[C@@H](C)C/C(C)=C\[C@H](C)[C@@H](O)[C@@H](C)/C=C\[C@@H](O)C[C@@H]1OC(=O)[C@H](C)[C@@H](O)[C@H]1C` [DISERMOLIDE], the Stability entry is given as “Unstable” in data set [1], “Stable” in data set [2], “Stable” in data set [3] and “Unstable” in data set [4].
